Measurements taken from US8372839B2, “Bipartite inhibitors of bacterial RNA polymerase” (priority 2005, dated 2013).
pIC50: −log10 of the molar value. Starred links: 1 amine or outer side, 2 acyl side, 3 side chain; linkers in the order of their positions; H or OH if unused. Positions of bridges follow the written chain, without caps; N, C: chain ends. Non-standard residues stand in square brackets, D forms with d. Residues, ends and D or L forms follow the SMILES beside them. *: point of attachment. X2 = CO[C@H]1/C=C/O[C@@]2(C)Oc3c(C)c(O)c4c(O)c(cc(OCC(=O)NCCCCCCCCCCCCN*)c4c3C2=O)NC(=O)/C(C)=C\C=C\[C@H](C)[C@H](O)[C@@H](C)[C@@H](O)[C@@H](C)[C@H](OC(C)=O)[C@@H]1C; X1 = N=C(CCCSCC(=O)[*:3])NCCCC[C@H](N[*:1])C(=O)[*:2]

How the values were obtained:
[1] = target: T1, Escherichia coli RNAP (Escherichia coli, UniProt P0A8T7+P0A8V2); assay: biochemical; type: biochemical; settings: for inhibition of transcription (in words): transcription assay, RNAP and [Asn516]β-RNAP
T1 construct: made in house
Procedure: RNAP was prepared as described in Niu, et al. (1996) Cell 87, 1123-1134. [Asn516]β-RNAP, a strongly rifamycin-resistant RNAP derivative (see Jin, et al. (1988) J. Mol. Biol. 202, 45-58) was prepared in the same manner, except that plasmid pRL706-516N was used in place of plasmid pREII-NHα. [Plasmid pRL706-516N, which encodes C-terminally hexahistidine tagged [Asn516]β, was constructed from plasmid pRL706 (Severinov, et al. (1997) J. Biol. Chem. 272, 24137-24140) by use of site-directed mutagenesis (QuikChange Site-Directed Mutagenesis Kit; Stratagene).]
RNAP or [Asn516]β-RNAP (3 fmol; Example 3.1) and each test compound (250 fmol-100 pmol) were pre-equilibrated 30 min at 37° C. in 15 μl buffer A (50 mM Tris-HCl, pH 8.0, 100 mM KCl, 10 mM MgCl2, 1 mM dithiothreitol, 10 ug/ml bovine serum albumin, and 5% glycerol). To the reaction mixture, was added 1 μl of 1 μM DNA fragment comprising positions −60 to +46 of the bacteriophage T5 N25 promoter (1 pmol; prepared as in Revyakin, et al. (2006) Science, in press), and, following incubation 15 min at 37° C., RNA synthesis was initiated by addition of […] of 6.7 mM ATP and 30 μM α[^32P]-UTP (0.6 Bq/fmol). Following 10 min at 37° C., the reaction was terminated by addition of 10/j 80% formamide, 10 mM EDTA, 0.04% bromophenol blue, and 0.04% xylene cyanol. Reaction products were heated […] at 90° C. and were analyzed by urea-PAGE (Sambrook, et al. (2001) Molecular Cloning: A Laboratory Manual, CSHL Press, Cold Spring Harbor, N.Y.), and quantified using a storage-phosphor scanner.

[2] = test system: Escherichia coli strain D21 f2/tolC; assay: Susceptibility assay (spot on top agar); type: cell-based; settings: for lowest concentration of test compound solution resulting in detectable inhibition of bacterial growth: 2.5 μl aliquots spotted, 12 h at 37° C.
Procedure: Aliquots (2.5 μl) of 1.56, 3.12, 6.25, 12.5, 25, 50, 100, 200, and 400 μM solutions of a test compound were spotted on plates containing Escherichia coli strain D21 f2/tolC (Fralick, et al. (1994) J. Bacteriol. 176, 6404-6406; ˜10^8 cells) in LB top agar (Sambrook, et al. (2001) Sambrook, et al. (2001) Molecular Cloning. A Laboratory Manual, CSHL Press, Cold Spring Harbor, N.Y.; 3.5 ml) overlaid on LB agar (Sambrook, et al. (2001) Sambrook, et al. (2001) Molecular Cloning: A Laboratory Manual, CSHL Press, Cold Spring Harbor, N.Y.; 25 ml).

[3] = target: [Asn516]β-RNAP (Escherichia coli, UniProt P0A8T7+P0A8V2, D516N)
Procedure: Following 10 min at 37° C., the reaction was terminated by addition of 10/j 80% formamide, 10 mM EDTA, 0.04% bromophenol blue, and 0.04% xylene cyanol.

Molecule | inhibition of transcription (in words) [1] | lowest concentration of test compound solution resulting in detectable inhibition of bacterial growth [2] [µM] | also measured
CC[C@H](C)[C@H](NC(=O)CNC(=O)[C@@H](NC(=O)[C@H](Cc1ccccc1)NC(=O)[C@H](Cc1ccc(O)cc1)NC(=O)[C@@H]1CCC(=O)NCC(=O)NCC(=O)N[C@@H](C)C(=O)NCC(=O)N[C@@H](CCCCNC(=N)CCCSCC(=O)NCCCCCCCCCCCCNC(=O)COc2cc3c(O)c4c(O)c(C)c5c(c24)C(=O)[C@@](C)(O/C=C/[C@H](OC)[C@@H](C)[C@@H](OC(C)=O)[C@H](C)[C@H](O)[C@H](C)[C@@H](O)[C@@H](C)/C=C/C=C(/C)C(=O)N3)O5)C(=O)N[C@@H](C(C)C)C(=O)N2CCC[C@H]2C(=O)N1)C(C)C)C(=O)NCC(=O)N[C@H](C(=O)N1CCC[C@H]1C(=O)N[C@H](C(=O)N[C@@H](CO)C(=O)N[C@@H](Cc1ccccc1)C(=O)N[C@@H](Cc1ccc(O)cc1)C(=O)NCC(=O)O)[C@@H](C)CC)[C@@H](C)O [rifamicrocin 1-12, {rifamycin SV}—{CH2C(O)NH(CH2)12NHC(O)CH2S(CH2)3C(NH2^+)}-{[Lys5]microcin J25}] (GGAG[X1](X2)VPEYFVGIGTPISFYG-OH; lactam N-8 (inferred); C-terminus assumed) | potently to inhibit transcription |  | pIC50 [1]: 8.70
CO[C@H]1/C=C/O[C@@]2(C)Oc3c(C)c([O-])c4c(O)c(cc(O)c4c3C2=O)NC(=O)/C(C)=C\C=C\[C@H](C)[C@H](O)[C@@H](C)[C@@H](O)[C@@H](C)[C@H](OC(C)=O)[C@@H]1C.[Na+] [rifamycin SV, reference compound] |  | 50 | 
{Rifamycin SV}—{CH2C(O)NH(CH2)nNHC(O)CH2S(CH2)3C(NH2^+)}-{[Lys5]MccJ25} [rifamicrocin 1-6] | potently to inhibit transcription |  | 
{Rifamycin SV}—{CH2C(O)NH(CH2)nNHC(O)CH2S(CH2)3C(NH2^+)}-{[Lys5]MccJ25} [rifamicrocin 1-8] | potently to inhibit transcription |  | 
{Rifamycin SV}—{CH2C(O)NH(CH2)nNHC(O)CH2S(CH2)3C(NH2^+)}-{[Lys5]MccJ25} [rifamicrocin 1-10] | potently to inhibit transcription | 12.5 | potency on bacterial growth relative to rifamycin SV ([2]; vs rifamycin SV): ~4 times higher
{rifamycin SV}—{CH2C(O)NH(CH2)10NHC(O)(CH2)2(C2N3)(CH2)4C(O)}-{[Lys5]microcin J25} [rifamicrocin 2-10] | potently to inhibit transcription |  | potency relative to prior-art rifamycin B, [Asn516]β-RNAP [3]: approximately 2 times higher
